From patent US20010053776A1, “Tricyclic pyridin-2-one analogue as a GABA receptor ligand” (priority 2000, published 2001)

- melting point: 300 to 302 °C
Structure (SMILES): Cc1csc(-c2cc(-c3ccncc3)c3n(c2=O)CCCc2ccncc2-3)n1 [Example 1, 9-(4-Methylthiazol-2-yl)-11-(pyridin-4-yl)-6,7-dihydro-5H-2,7a-diazadibenzo[a,c]cyclohepten-8-one]
